Assay results published in PubChem BioAssay AID712 (Emory University Molecular Libraries Screening Center, 2007).
pIC50: −log10 of the molar value. Active and inactive are the calls of the source. How the calls were made is not given here.

Molecular target: Heat shock protein HSP 90-alpha (Homo sapiens) (UniProt P07900)
Assay: Hsp90 blockade concentration-response – dose response (AID 712)
Conditions: Hsp90 inhibition assay

| Structure (SMILES) | pIC50 | IC50 |
| --- | --- | --- |
| COc1cccc(C(=O)NC2CC3CCCC(C2)N3CC(=O)Nc2ccccc2)c1 (stereo unspecified) | 4.81 | – |
| Cc1nc(-c2c(-c3ccc(O)cc3O)noc2C(F)(F)F)cs1 | 4.78 | – |
| COc1cccc(C(=O)NCC(=O)n2nc(C)cc2C)c1 | – | > 50 µM (inactive) |
| C[C@H]1CCC[C@H](O)CCCCCc2cc(O)cc(O)c2C(=O)O1 | 5.58 | – |
| CCCCCC(=O)N1CC2(C)CN(C(=O)CCCCC)CC(C)(C1)C2=O | – | > 50 µM (inactive) |
| COc1ccc2c(c1-c1cc(NS(=O)(=O)c3cccc([N+](=O)[O-])c3)ccc1N)OCO2 | – | > 50 µM (inactive) |
| O=C(c1ccc2ccccc2c1)N1CCN(c2ccc(O)cc2)CC1 | – | > 50 µM (inactive) |
| Cc1ccccc1OCC(O)Cn1c(NCCN(C)C)nc2c1c(=O)n(C)c(=O)n2C (stereo unspecified) | – | > 50 µM (inactive) |
| CCCC(C)N(CC)CCNc1cc(OC)cc2cccnc12 (stereo unspecified) | 4.90 | – |
| COc1ccc(-n2nc3c(c2NC(=O)c2ccc(Br)cc2)CS(=O)C3)cc1 (stereo unspecified) | – | > 50 µM (inactive) |
| C=CCn1c(N)c(C(=O)OCC(C)C)c2nc3ccccc3nc21 | – | > 50 µM (inactive) |
| Nc1ccc2[nH]ccc2c1 | – | > 50 µM (inactive) |
| O=C(NCCCn1ccnc1)c1noc2c1CCc1ccccc1-2 | 4.87 | – |
| COc1cc(NCC(O)CN(CC(C)C)CC(C)C)c2nc(C)ccc2c1 (stereo unspecified) | – | > 50 µM (inactive) |
| CCOC(=O)c1sc(NC(=O)CSc2nnc(-c3ccc(OC)cc3)n2CCOC)nc1C | – | > 50 µM (inactive) |
| O=C1C(c2ccc3ccccc3n2)=C(O)c2ccccc21 | – | > 50 µM (inactive) |
| CCn1nc(-c2ccccc2)nc2c(=O)n(C)c(=O)nc1-2 | 6.87 | – |
| N#Cc1cc(S(=O)(=O)Nc2cc(OCc3ccccc3)cc3cccnc23)ccc1F | – | > 50 µM (inactive) |
| NNc1ccc2c(Cl)cc(Cl)c(O)c2n1 | – | > 50 µM (inactive) |
| Cc1ccc(S(=O)(=O)Nc2ccc(O)c(-c3ccccc3O)c2)cc1 | – | > 50 µM (inactive) |
| Cc1cc(=O)oc2c(N)c(O)ccc12 | – | > 50 µM (inactive) |
| Oc1ccc(-c2nc(-c3ccc(O)c(O)c3)cs2)cc1 | 6.13 | – |
| O=[N+]([O-])c1cc(O)cc2cccnc12 | 5.81 | – |

| Structure (SMILES) | pIC50 | IC50 |
| --- | --- | --- |
| Nc1cccc2cccnc12 | – | > 50 µM (inactive) |
| Nc1cccc2cnccc12 | – | > 50 µM (inactive) |
| COc1cc(NCCCC(C)N)c2nccc(Cl)c2c1 (stereo unspecified) | 4.90 | – |
| N#C/C(=C\c1ccc(O)c(O)c1)C(=O)NCCCc1ccccc1 | 4.72 | – |
| O=c1oc2c3c4c(cc2s1)CCCN4CCC3 | – | > 50 µM (inactive) |
| Nc1ccc(NS(=O)(=O)c2cc(Cl)ccc2Cl)cc1-c1ccccc1O | – | > 50 µM (inactive) |
| Cn1cnnc1SCC(=O)c1ccc2c(c1)CCCC2 | – | > 50 µM (inactive) |
| COc1ccc(OC)c(-n2c(C)nc3cc(C(=O)O)ccc32)c1 | 4.53 | – |
| O=C(CSc1nnc(Cc2cc(=O)[nH]c(=O)[nH]2)n1-c1ccccc1)NCC1CCCO1 (stereo unspecified) | – | > 50 µM (inactive) |
| CCn1c(CSc2nnc(-c3cccnc3)n2-c2ccccc2C)nc2cc(C(=O)O)ccc21 | 6.17 | – |
| Cc1nnc(NC(=O)CSc2nc(N)cc(N)n2)s1 | – | > 50 µM (inactive) |
| COC(=O)C1=C(C)N(c2cccc3ccccc23)C(=O)C1 | – | > 50 µM (inactive) |
| CCOc1ccc2ccccc2c1-c1cc(NS(=O)(=O)c2ccc(OC)c(OC)c2)ccc1N | – | > 50 µM (inactive) |
| CCOC(=O)Cc1c[nH]c2ccc(N)cc12 | – | > 50 µM (inactive) |
| COc1cccc2c1C(=O)c1c(O)c3c(c(O)c1C2=O)C[C@@](O)(C(C)=O)C[C@@H]3O[C@H]1C[C@H](N)[C@H](O)[C@H](C)O1 | 6.76 | – |
| O=C(NC1(C(F)(F)F)Oc2ccc(Cl)cc2O1)N1CCC2(CC1)OCCO2 (stereo unspecified) | 4.63 | – |
| O=C(Nc1nc(-c2ccc3c(c2)OCO3)cs1)C1COc2ccccc2O1 (stereo unspecified) | – | > 50 µM (inactive) |
| Nc1nc2c(s1)CCc1c-2cnn1-c1ccccc1 | 4.95 | – |
| COc1ccc(N2C(=O)CSC23C(=O)N2CCCc4cccc3c42)cc1 (stereo unspecified) | – | > 50 µM (inactive) |
| CC(C)CN1C(=O)NC(NC(=O)c2ccco2)(C(F)(F)F)C1=O (stereo unspecified) | – | > 50 µM (inactive) |
| CCSc1nnc2c(n1)OC(c1ccc(C(=O)O)cc1)N(C(C)=O)c1ccccc1-2 (stereo unspecified) | – | > 50 µM (inactive) |
| Nc1cccc(S(=O)(=O)Nc2ccc(O)c(-c3ccccc3O)c2)c1 | – | > 50 µM (inactive) |
| CCOc1ccc(NCC(=O)Nc2ccc(C)cc2C)cc1 | 5.10 | – |

| Structure (SMILES) | pIC50 | IC50 |
| --- | --- | --- |
| COc1ccc(NCc2cc3cc(OC)ccc3[nH]c2=O)cc1 | – | > 50 µM (inactive) |
| COc1cc(N)c2nccc(Cl)c2c1 | – | > 50 µM (inactive) |
| Nc1cc2ccccc2c(O)c1O | > 5.81 | – |
| Cn1ncnc2c(=O)n(C)c(=O)nc1-2 | 6.62 | – |
| COc1cccc2c1C(=O)c1c(O)c3c(c(O)c1C2=O)C[C@@](O)(C(=O)CO)C[C@@H]3O[C@H]1C[C@H](N)[C@H](O)[C@H](C)O1 | 6.58 | – |
| Cc1nc(SCC(=O)c2ccc(O)cc2O)n[nH]1 | – | > 50 µM (inactive) |
| Nc1cc2c(c(O)c1O)C(=O)c1ccccc1C2=O | > 5.81 | – |
| O=C1c2ccccc2C(O)(O)C1(O)C1(O)C(=O)c2ccccc2C1(O)O (stereo unspecified) | 5.30 | – |
| Oc1c(Cl)cc(Cl)c2cccnc12 | – | > 50 µM (inactive) |
| COC(=O)c1ccc2c(c1)SC1=C(CCCC1=O)N2 | 4.96 | – |
| COc1ccc(C2=NO[C@@H]3C(=O)N(c4ccc5c(c4)OCCO5)C(=O)[C@H]23)cc1OC | 4.53 | – |
| CC(Cc1ccc(O)c(O)c1)C(C)Cc1ccc(O)c(O)c1 (stereo unspecified) | 5.58 | – |
| CCCC(C)C(=O)Nc1cc(OC)ccc1OC (stereo unspecified) | – | > 50 µM (inactive) |
| CCc1cc(C(=O)Cc2cscn2)c(O)cc1O | – | > 50 µM (inactive) |
| Nc1cccc2cc(O)ccc12 | – | > 50 µM (inactive) |
| CCOC(=O)c1oc2c(O)c(O)ccc2c(=O)c1-c1nncn1-c1ccccc1 | 4.62 | – |
| CCc1ccc(-c2nnn(CCC(=O)OC)n2)cc1 | – | > 50 µM (inactive) |
| c1ccc2[nH]c(SCc3ccc(-c4nnco4)cc3)nc2c1 | – | > 50 µM (inactive) |
| O=C(O)c1cc(O)c2c(c1)C(=O)c1cccc(O)c1C2=O | 5.48 | – |
| CCc1cc(-c2[nH]ncc2-c2ccc3c(c2)OCO3)c(O)cc1O | 5.71 | – |
| COc1ccc(S(=O)(=O)N(C)CC(=O)N2CCC(C(N)=O)CC2)cc1Cl | – | > 50 µM (inactive) |
| Cc1cc(SCC(N)=O)nc(SCC(=O)c2ccccc2)n1 | – | > 50 µM (inactive) |
| NCc1cc(S(=O)(=O)Nc2cc(O)cc3cccnc23)ccc1F | – | > 50 µM (inactive) |

| Structure (SMILES) | pIC50 | IC50 |
| --- | --- | --- |
| Nc1ccc(NS(=O)(=O)c2ccccc2[N+](=O)[O-])cc1-c1ccccc1O | – | > 50 µM (inactive) |
| CN(C)C=Nc1c(Br)cc(Br)c2nonc12 | – | > 50 µM (inactive) |
| O=C1C(c2cnc3ccccc3n2)=C(O)c2ccccc21 | 4.70 | – |
| OCCN(CCO)c1nc(N2CCCCC2)c2nc(N(CCO)CCO)nc(N3CCCCC3)c2n1 | 4.68 | – |
| Cc1c(-c2nn(C)c(=O)c3ccccc23)oc2ccc(F)cc2c1=O | 5.61 | – |
| Cc1ccc(S(=O)(=O)Nc2ccc(F)c(-c3c(O)ccc4c3OCO4)c2)cc1 | 4.60 | – |
| CCN(CC)CC(O)c1ccnc2c(O)cccc12 (stereo unspecified) | – | > 50 µM (inactive) |
| O=C(NC1(O)C(=O)c2ccccc2C1=O)c1ccccc1 | 4.71 | – |
| CCCc1cc2c(cc1NS(=O)(=O)c1ccc(CCNC(C)=O)cc1)OCO2 | – | > 50 µM (inactive) |
| O=C1c2ccccc2C(=O)N1Cc1ccc2c(c1)OCO2 | – | > 50 µM (inactive) |
| Cc1ccc(CNc2ccc(O)cc2)cc1 | – | inactive |
| O=[N+]([O-])c1cccc(S(=O)(=O)Nc2ccc(O)c(-c3ccccc3O)c2)c1 | – | > 50 µM (inactive) |
| CC(=O)CCc1c(C)[nH]c2ccccc2c1=O | – | > 50 µM (inactive) |
| Cc1ccc(C(=O)O)cc1S(=O)(=O)NCC1CCCO1 (stereo unspecified) | – | > 50 µM (inactive) |
| CC1(C)CC(=O)c2c(O)cc(O)cc2O1 | – | > 50 µM (inactive) |
| O=[N+]([O-])c1ccc(NS(=O)(=O)c2ccccc2)c(O)c1 | – | > 50 µM (inactive) |
| O=S(=O)(Cc1ccc(Cl)cc1)Nc1ccc2c(c1)OCO2 | – | > 50 µM (inactive) |
| O=S(=O)(Nc1cc(OCc2ccccc2)cc2cccnc12)c1ccc(F)cc1 | – | > 50 µM (inactive) |
| CCOC(=O)NC1(NCc2ccccc2)Oc2ccccc2O1 | – | inactive |
| C=CCNC(=O)CN(c1cccc(Br)c1)S(C)(=O)=O | – | > 50 µM (inactive) |
| CCn1c(CSc2nccn2C)nc2cc(C(=O)O)ccc21 | 4.87 | – |
| CC(C)NCCCC(C)Nc1cc(O)cc2cccnc12 (stereo unspecified) | 5.81 | – |
| O=c1cc(NCCCO)c2ccccc2o1 | – | > 50 µM (inactive) |

| Structure (SMILES) | pIC50 | IC50 |
| --- | --- | --- |
| N#Cc1ccc(CSc2nnc(Nc3ccccc3)s2)cc1 | – | > 50 µM (inactive) |
| COc1cc(NCCCC(C)N)c2ncccc2c1 (stereo unspecified) | – | > 50 µM (inactive) |
| O=C1C(c2c(O)[nH]c3ccc([N+](=O)[O-])cc23)=Nc2ccccc21 | > 5.81 | – |
| Cc1cc(=O)oc2c(N)c(OCc3ccccc3)ccc12 | – | > 50 µM (inactive) |
| O=C(O)c1ccc2c3c(ncnc13)-c1ccccc1C2=O | 5.28 | – |
| O=S(=O)(Nc1ccc(O)c(-c2ccccc2O)c1)c1cc(Cl)ccc1Cl | – | > 50 µM (inactive) |
| Nc1cc(=O)c2n[nH]nc2[nH]1 | – | > 50 µM (inactive) |
| C[C@H]1CCCC(=O)CCCCCc2cc(O)cc(O)c2C(=O)O1 | 5.66 | – |
| COc1ccc2c(c1-c1cc(NS(=O)(=O)c3cc(Cl)ccc3Cl)ccc1N)OCO2 | – | > 50 µM (inactive) |
| Cc1ccc(S(=O)(=O)Nc2ccc3oc(=O)sc3c2)c(C)c1 | – | inactive |
| COc1cc(NCCN(CC(C)C)CC(C)C)c2ncccc2c1 | – | inactive |
| Cc1ccc(S(=O)(=O)Nc2cc(O)cc3cccnc23)cc1 | – | > 50 µM (inactive) |
| Nc1ccc(Nc2nc3ccccc3s2)c(O)c1 | – | > 50 µM (inactive) |
| Nc1cc(Cl)cc2cccnc12 | – | > 50 µM (inactive) |
| CC(=O)Oc1cccc2c1C(=O)c1c(OC(C)=O)cc(C(=O)O)cc1C2=O | 5.03 | – |
| CC1=CC(C#N)(C#N)C(C#N)(C#N)C(c2ccccc2)N1 (stereo unspecified) | 5.13 | – |
| CCOc1ccc2ccccc2c1-c1cc(NS(=O)(=O)c2cc(Cl)ccc2Cl)ccc1N | – | > 50 µM (inactive) |
| O=C1C(C2=C(O)c3ccccc3C2=O)=Nc2ccccc21 | – | > 50 µM (inactive) |
| Oc1c(I)cc(Cl)c2cccnc12 | – | > 50 µM (inactive) |
